Assays:
human PPARα = target: T1, human PPARα (Homo sapiens, UniProt Q07869); assay: PPAR-GAL4 transactivation assay in transiently transfected CV-1 cells; format: cell-based; details: PPAR-GAL4 chimeric receptor, CV-1 cells; read-out: EC50(nM) hPPARα
T1 construct: expressed in transfected cells; host or cells: CV-1 (monkey kidney) cells, transient transfection
T1 sequence (Q07869 159-468): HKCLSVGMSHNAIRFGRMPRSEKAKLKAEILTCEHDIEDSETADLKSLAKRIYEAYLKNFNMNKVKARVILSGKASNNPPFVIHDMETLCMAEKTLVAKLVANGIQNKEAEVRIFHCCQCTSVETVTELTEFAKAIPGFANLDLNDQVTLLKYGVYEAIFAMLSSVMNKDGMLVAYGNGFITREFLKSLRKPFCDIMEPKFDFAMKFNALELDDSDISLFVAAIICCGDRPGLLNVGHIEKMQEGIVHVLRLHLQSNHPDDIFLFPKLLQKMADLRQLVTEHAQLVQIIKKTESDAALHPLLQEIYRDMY
Method: (§1) To assess the functional transcriptional activity of these compounds, cell-based assays using chimeric receptor Gal4 DNA-binding domain (DBD)-NR ligand binding domain cotransfection assay (LBDs of PPARα, PPARγ, and PPARδ) were performed. As an initial screen to determine the PPARα activity and selectivity, all compounds were evaluated for in vitro potency and selectivity by transfection testing, using CV-1 cells transfected with human and mouse PPARs. MH100×4 is a luciferase reporter with four copies of a GAL4 UASG response element, where GAL-I refers to the ligand-binding domain of the indicated receptor fused to the C-terminus of the GAL4 DNA-binding domain. Assays were performed using a Biomek automated workstation in which the genes for the nuclear receptor, as well as a plasmid containing a response element upstream of a luciferase cDNA, are transfected into CV-1 cells. Compounds were evaluated for their ability to activate human and mouse PPARs at […] test concentrations. […] The transactivation activity of the series of compounds (DY121-132, 10a-g) toward PPARα was expressed as EC50, which is the concentration of the test compound that affords half-maximum activity, as summarized in Table 1.
Cell-based reporter gene assays Cell based transactivation assays were performed in CV 1 cells as described (Forman, et al.). PPARα activity was assayed with a GAL4 reporter construct and fusion proteins containing the ligand binding domains of human PPARα, human PPARγ and human PPARδ linked to the DNA binding domain of yeast GAL4. Reporter constructs (300 ng/10^5 cells) and cytomegalovirus-driven expression vectors (20-50 ng/10^5 cells) were added as indicated along with CMX-b-gal (500 ng/10^5 cells) as an internal control. Cells were transiently transfected by Lipofectamine as described. Cells were incubated with DNA complexed liposomes for 2 h and subsequently treated for approximately 45 h with phenol red free DMEM FBS containing the indicated compounds. After exposure to ligand, the cells were harvested and assayed for luciferase and β-galactosidase activity. All points were assayed in triplicate and varied by less than 15%. Each experiment was repeated three or more times with similar results. Fold activation is reported.
(§2) In vitro binding and transfection studies. As an initial screen to determine the PPARα, PPARγ, and PPARδ activity, all compounds were evaluated for in vitro potency and selectivity by transfection testing, using CV-1 cells transfected with human and mouse PPARs. MH100×4 is a luciferase reporter with four copies of a GAL4 USAG response element, where GAL-I refers to the ligand-binding domain of the indicated receptor fused to the C-terminus of the GAL4 DNA-binding domain. Assays were performed using a Biomek automated workstation in which the gene for the nuclear receptor, as well as a plasmid containing a response element upstream of a luciferase cDNA, are transfected into CV-1 cells. Compounds were evaluated for their ability to activate human PPARs at 1, 2.5, 3, and 5 uM test concentrations.
(§3) Compounds were screened for agonist activity towards PPAR-GAL4 chimeric receptors in transiently transfected CV-1 cells as described. EC50 is the concentration of test compound that gave 50% maximum efficacy.

mouse PPARα = target: T2, mouse PPARα (Mus musculus, UniProt P23204); assay: as above; format: cell-based; details: PPAR-GAL4 chimeric receptor, read-out: EC50(nM) mPPARα
T2 construct: expressed in transfected cells; host or cells: CV-1 (monkey kidney) cells, transient transfection
T2 sequence (P23204 159-468): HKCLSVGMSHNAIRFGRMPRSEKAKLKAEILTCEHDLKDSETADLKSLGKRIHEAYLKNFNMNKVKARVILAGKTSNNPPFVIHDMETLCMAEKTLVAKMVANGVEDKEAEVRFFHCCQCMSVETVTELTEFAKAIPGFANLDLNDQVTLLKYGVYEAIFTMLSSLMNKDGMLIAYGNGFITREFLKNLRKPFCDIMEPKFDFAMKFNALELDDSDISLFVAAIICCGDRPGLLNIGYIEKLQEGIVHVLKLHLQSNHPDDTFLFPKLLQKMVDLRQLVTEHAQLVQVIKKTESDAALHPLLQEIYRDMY
Method: as §1, §2, §3

PPARα = target: T3, PPARα (Homo sapiens, UniProt Q07869); assay: PPRE-luc reporter assay in CV-1 cells co-transfected with PPARα and RXRα expression plasmids; format: cell-based; details: luciferase reporter
T3 construct: expressed in transfected cells; host or cells: CV-1 (monkey kidney) cells
T3 sequence (Q07869 1-468): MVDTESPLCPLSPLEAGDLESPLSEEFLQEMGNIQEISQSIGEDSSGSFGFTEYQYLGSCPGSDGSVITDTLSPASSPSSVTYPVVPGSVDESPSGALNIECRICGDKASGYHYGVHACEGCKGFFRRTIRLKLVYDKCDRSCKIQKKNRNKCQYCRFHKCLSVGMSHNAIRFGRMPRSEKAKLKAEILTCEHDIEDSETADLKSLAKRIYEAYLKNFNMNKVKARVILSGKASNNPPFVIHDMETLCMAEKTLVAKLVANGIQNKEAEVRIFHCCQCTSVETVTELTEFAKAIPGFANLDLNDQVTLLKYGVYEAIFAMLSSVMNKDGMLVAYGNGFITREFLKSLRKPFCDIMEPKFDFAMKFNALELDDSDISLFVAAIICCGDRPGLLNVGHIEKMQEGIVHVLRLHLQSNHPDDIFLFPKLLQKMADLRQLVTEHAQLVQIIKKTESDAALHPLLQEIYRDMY
T3 sequence (P19793 1-462 partner): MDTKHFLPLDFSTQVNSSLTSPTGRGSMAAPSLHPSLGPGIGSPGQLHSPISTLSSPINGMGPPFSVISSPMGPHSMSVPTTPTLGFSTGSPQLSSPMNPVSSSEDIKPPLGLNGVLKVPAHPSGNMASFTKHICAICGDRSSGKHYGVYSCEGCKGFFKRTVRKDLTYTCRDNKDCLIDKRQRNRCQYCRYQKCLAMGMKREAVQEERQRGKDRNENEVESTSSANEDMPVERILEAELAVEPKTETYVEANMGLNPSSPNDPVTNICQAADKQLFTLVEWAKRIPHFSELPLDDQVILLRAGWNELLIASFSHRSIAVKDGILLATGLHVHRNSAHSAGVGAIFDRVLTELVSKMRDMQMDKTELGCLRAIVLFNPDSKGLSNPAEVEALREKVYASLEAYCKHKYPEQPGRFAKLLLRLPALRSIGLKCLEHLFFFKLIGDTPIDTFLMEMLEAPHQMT
Method: In brief, monkey kidney CV-1 cells were co-transfected with appropriate reporter constructs and expression vectors. The fold activation of the reporter construct by ligand was determined at several concentrations of selected compounds (FIG. 4).^20 To examine the effect of DY-compound on PPARα-mediated PPRE transcriptional activation, a PPRE-luc reporter assay was conducted using a PPRE-driven luciferase reporter-gene (PPRE-luc) plasmid and PPARα and RXRα gene expression plasmids in CV-1 cells.

C57Bl/6J female mice = assay: Serum triglyceride and lipid effects in C57Bl/6J female mice; format: in vivo; details: FIG. 7

| Compound | EC50 (human PPARα) | EC50 (mouse PPARα) | PPARα activation / PPRE-luc activity (PPARα) | dose-response of triglyceride suppression (C57Bl/6J female mice) |
| --- | --- | --- | --- | --- |
| COc1cccc(Cn2c(CCCc3ccc(OC(C)(C)C(=O)O)cc3)nn(Cc3ccc(C)cc3)c2=O)c1 [10b, 2-(4-{3-[4-(3-Methoxy-benzyl)-1-(4-methyl-benzyl)-5-oxo-4,5-dihydro-1H[1,2,4]triazol-3-yl]-propyl}-phenoxy)-2-methyl-propionic acid] | 2 nM | 20 nM |  |  |
| Cc1ccc(Cn2nc(CCCc3ccc(OC(C)(C)C(=O)O)cc3)n(Cc3ccccc3)c2=O)cc1 [10c, 2-(4-{3-[4-Benzyl-1-(4-methyl-benzyl)-5-oxo-4,5-dihydro-1H[1,2,4]triazol-3-yl]-propyl}-phenoxy)-2-methyl-propionic acid] | 1.5 nM | 20 nM |  |  |
| Cc1ccc(Cn2nc(CCCc3ccc(OC(C)(C)C(=O)O)cc3)n(Cc3ccc(F)cc3)c2=O)cc1 [10d, 2-(4-{3-[4-Fluoro-benzyl-1-(4-methyl-benzyl)-5-oxo-4,5-dihydro-1H[1,2,4]triazol-3-yl]-propyl}-phenoxy)-2-methyl-propionic acid] | 1.5 nM | 10 nM |  |  |
| COc1cc(Cn2c(CCCc3ccc(OC(C)(C)C(=O)O)cc3)nn(Cc3ccc(C)cc3)c2=O)cc(OC)c1OC [10f, 2-(4-{3-[3,4,5-Trimethoxy-benzyl-1-(4-methyl-benzyl)-5-oxo-4,5-dihydro-1H[1,2,4]triazol-3-yl]-propyl}-phenoxy)-2-methyl-propionic acid] | 3 nM | 30 nM |  | Dose-response suppression |
| C=Cc1ccc(Cn2nc(CCCc3ccc(OC(C)(C)C(=O)O)cc3)n(Cc3ccc(C)cc3)c2=O)cc1 [10h] | 12 nM | 20 nM |  |  |

These reach a lower EC50 (human PPARα). Values come first.

| EC50 (human PPARα) | EC50 (mouse PPARα) | PPARα activation / PPRE-luc activity (PPARα) | Compound | dose-response of triglyceride suppression (C57Bl/6J female mice) |
| --- | --- | --- | --- | --- |
| 1 nM | 3 nM | highest PPARα activation | Cc1ccc(Cn2nc(CCCc3ccc(OC(C)(C)C(=O)O)cc3)n(Cc3ccc(C)cc3)c2=O)cc1 [10e, 2-(4-{3-[4-Methyl-benzyl-1-(4-methyl-benzyl)-5-oxo-4,5-dihydro-1H[1,2,4]triazol-3-yl]-propyl}-phenoxy)-2-methyl-propionic acid] |  |
| 1 nM | 10 nM | highest PPARα activation | Cc1ccc(Cn2nc(CCCc3ccc(OC(C)(C)C(=O)O)cc3)n(Cc3ccccc3Cl)c2=O)cc1 [10g, 2-(4-{3-[2-Chloro-benzyl-1-(4-methyl-benzyl)-5-oxo-4,5-dihydro-11H[1,2,4]triazol-3-yl]-propyl}-phenoxy)-2-methyl-propionic acid] | Dose-response suppression |

From patent US20190077774A1, “PEROXISOME PROLIFERATOR-ACTIVATED RECEPTOR AGONISTS” (City of Hope, priority 2017, published 2019)
